Experiment: xn = mol fraction of the nth substance listed
Details: 101 kPa, Liquid; for viscosity: Capillary tube (Ostwald / Ubbelohde) method; for mass density: Vibrating tube method

CCCCOCCOCCO [3,6-dioxa-1-decanol] + O
Details | mass density, 283.15 K [kg/m3] | mass density, 293.15 K [kg/m3] | mass density, 303.15 K [kg/m3] | mass density, 313.15 K [kg/m3] | mass density, 323.15 K [kg/m3] | viscosity, 283.15 K [mPa·s] | viscosity, 293.15 K [mPa·s] | viscosity, 303.15 K [mPa·s] | viscosity, 313.15 K [mPa·s] | viscosity, 323.15 K [mPa·s]
x1 = 0.00199 | 1000.2 | 998.59 | 995.87 | 992.68 | – | – | – | – | – | –
x1 = 0.003 | 1000.41 | 998.79 | 996.01 | 992.86 | – | – | – | – | – | –
x1 = 0.00498 | 1001.05 | 999.2 | 996.31 | 993.28 | – | – | – | – | – | –
x1 = 0.00617 | 1001.43 | 999.48 | 996.53 | 993.43 | – | – | – | – | – | –
x1 = 0.00706 | 1001.75 | 999.68 | 996.67 | 993.51 | – | – | – | – | – | –
x1 = 0.00794 | 1002 | 999.88 | 996.81 | 993.62 | – | – | – | – | – | –
x1 = 0.00892 | 1002.32 | 1000.11 | 996.95 | 993.66 | – | – | – | – | – | –
x1 = 0.00993 | 1002.65 | 1000.34 | 997.07 | 993.71 | – | – | – | – | – | –
x1 = 0.01492 | 1004.27 | 1001.44 | 997.66 | 993.62 | – | – | – | – | – | –
x1 = 0.02056 | 1005.74 | 1002.03 | 997.51 | 993.05 | – | – | – | – | – | –
x1 = 0.0238 | 1006.36 | 1002.2 | 997.18 | 992.61 | – | – | – | – | – | –
x1 = 0.02697 | 1006.66 | 1002.11 | 997 | 992.19 | – | – | – | – | – | –
x1 = 0.03015 | 1006.78 | 1001.94 | 996.61 | 991.64 | – | – | – | – | – | –
x1 = 0.03953 | 1006.53 | 1001.04 | 995.23 | 989.79 | – | – | – | – | – | –
x1 = 0.06038 | 1005.13 | 998.81 | 992.28 | 986.16 | – | – | – | – | – | –
x1 = 0.07987 | 1003.42 | 996.64 | 989.68 | 983.24 | – | – | – | – | – | –
x1 = 0.1 | 1001.67 | 994.55 | 987.21 | 979.73 | 971.95 | 8.644 | 5.684 | 3.974 | 2.914 | 2.216
x1 = 0.2 | 992.63 | 984.71 | 976.63 | 968.47 | 960.1 | 12.36 | 7.986 | 5.482 | 3.942 | 2.943
x1 = 0.2999 | 985.44 | 977.27 | 968.97 | 960.58 | 951.9 | 13.32 | 8.637 | 5.93 | 4.259 | 3.173
x1 = 0.4 | 979.51 | 971.27 | 962.91 | 954.51 | 945.89 | 13.06 | 8.55 | 5.913 | 4.27 | 3.195
x1 = 0.5 | 974.9 | 966.63 | 958.27 | 949.82 | 941.29 | 12.36 | 8.183 | 5.713 | 4.161 | 3.133
x1 = 0.6 | 971.46 | 963.17 | 954.74 | 946.32 | 937.75 | 11.49 | 7.708 | 5.442 | 3.998 | 3.033
x1 = 0.7 | 968.77 | 960.45 | 952.05 | 943.62 | 935.03 | 10.58 | 7.203 | 5.144 | 3.816 | 2.918
x1 = 0.7998 | 966.62 | 958.25 | 949.8 | 941.34 | 932.8 | 9.748 | 6.727 | 4.857 | 3.638 | 2.804
x1 = 0.8999 | 964.58 | 956.18 | 947.72 | 939.34 | 930.8 | 9.038 | 6.309 | 4.601 | 3.474 | 2.697
x1 = 1 | 962.57 | 954.16 | 945.74 | 937.35 | 928.85 | 8.301 | 5.86 | 4.323 | 3.295 | 2.58
